Test results as given in ChEMBL document CHEMBL4312024, “Optimization of piperazine-derived ureas privileged structures for effective antiadenovirus agents” (Eur J Med Chem, 2020).
The source made the active and inactive calls. The calls are words filed in the database; no cut-off is given here.

What was measured:
Human adenovirus 5 [1] = assay: Antiviral activity against Human adenovirus 5 infected in HEK293beta5 cells coexpressing GFP assessed as inhibition of plaque formation at 10 uM incubated for 7 days relative to control; format: functional; conditions: Human mastadenovirus C, 168 h
[2] = Selectivity Index, ratio of CC50 for human A549 cells to IC50 for Human adenovirus 5 infected in HEK293beta5 cells coexpressing GFP; format: toxicity, cell-based; conditions: read-out: Ratio CC50/IC50
[3] = Cytotoxicity against human A549 cells assessed as reduction in cell viability incubated for 48 hrs by alamarBlue assay; format: cell-based
Human adenovirus 5 [4] = assay: Antiviral activity against Human adenovirus 5 infected in A549 cells assessed as fold reduction in virus yield at 50 uM incubated for 48 hrs by endpoint dilution method relative to control; format: functional
Human adenovirus 5 [5] = assay: Antiviral activity against Human adenovirus 5 infected in HEK293beta5 cells coexpressing GFP assessed as inhibition of plaque formation incubated for 7 days; format: functional, organism-based; conditions: Human mastadenovirus C, 168 h
Human adenovirus 5 [6] = assay: Antiviral activity against Human adenovirus 5 infected in A549 cells assessed as decrease in […] cDNA copies at 50 uM incubated for 24 hrs by qRT-PCR analysis; format: functional, organism-based
Human adenovirus 5 [7] = assay: Antiviral activity against Human adenovirus 5 infected in A549 cells assessed as nuclear associated viral DNA copies at 50 uM incubated for 45 mins by qRT-PCR analysis; format: functional, organism-based
Human betaherpesvirus 5 = assay: Antiviral activity against Human cytomegalovirus infected in MRC5 cells assessed as decrease in viral DNA copies at 50 uM incubated for 72 hrs by qRT-PCR analysis; format: functional, organism-based

| Compound | inhibition at 10 µM (Human adenovirus 5 [1]) | CC50 at 48 h [3] | also measured |
| --- | --- | --- | --- |
| COc1ccc(NC(=S)N2CCN(C(=O)CC(C)(C)C)CC2C)cc1 (stereo not given) | 58.1% |  |  |
| O=C(c1cc2ccccc2o1)N1CCN(C(=O)Nc2cc(C(F)(F)F)ccc2Cl)C(c2ccccc2)C1 (stereo not given) |  |  | selectivity ratio [2]: 116 |
| CC1CN(C(=O)OC(C)(C)C)CCN1C(=S)Nc1ccc(Cl)cc1 (stereo not given) | 73.4% |  |  |
| N#Cc1ccc(NC(=S)N2CCN(C(=O)CC3CCCCC3)CC2c2ccccc2)cc1 (stereo not given) | 80% | 65.3 µM |  |
| CC1CN(C(=O)CC2CCCCC2)CCN1C(=S)Nc1ccc([N+](=O)[O-])cc1 (stereo not given) | 82.6% | 148 µM |  |
| N#Cc1ccc(NC(=S)N2CCN(C(=O)Cc3ccccc3)CC2c2ccccc2)cc1 (stereo not given) | 64% |  |  |
| CC(C)(C)OC(=O)N1CCN(C(=O)Nc2ccccc2[N+](=O)[O-])CC1 | 15% |  |  |
| O=C(Cc1ccccc1)N1CCN(C(=O)Nc2ccc([N+](=O)[O-])cc2)C(c2ccccc2)C1 (stereo not given) | 82.6% | 174 µM |  |
| CC(C)(C)CC(=O)N1CCN(C(=S)Nc2cc(C(F)(F)F)cc(C(F)(F)F)c2)C(c2ccccc2)C1 (stereo not given) | 100% | 91.8 µM |  |
| CC1CN(C(=O)CC(C)(C)C)CCN1C(=S)Nc1ccc(C(F)(F)F)cc1 (stereo not given) | 36.3% |  |  |
| CC1CN(C(=O)CC2CCCCC2)CCN1C(=S)Nc1cc(C(F)(F)F)cc(C(F)(F)F)c1 (stereo not given) | 100% | 82.4 µM |  |
| O=C(c1cc2ccccc2o1)N1CCN(C(=O)Nc2ccccc2[N+](=O)[O-])C(c2ccccc2)C1 (stereo not given) | 100% |  | selectivity ratio [2]: 79; fold change (FC) (Human adenovirus 5 [4]): 9.9 |
| O=C(Nc1ccccc1[N+](=O)[O-])N1CCN(C(=O)c2cc3ccccc3o2)CC1 | 41.5% |  |  |
| O=C(CC1CCCCC1)N1CCN(C(=S)Nc2ccc(F)cc2)C(c2ccccc2)C1 (stereo not given) | 5% |  |  |
| CC(C)(C)OC(=O)N1CCN(C(=O)Nc2ccc([N+](=O)[O-])cc2)CC1 | 91.5% | 118 µM | IC50 (Human adenovirus 5 [5]): 2.7 µM; Activity (Human adenovirus 5 [6]): inactive; Activity (Human adenovirus 5 [7]): Active; selectivity ratio [2]: 43.7; fold change (FC) (Human adenovirus 5 [4]): 21.2; Activity (Human betaherpesvirus 5): Active |
| CC1CN(C(=O)c2cc3ccccc3o2)CC(C)N1C(=O)Nc1ccc([N+](=O)[O-])cc1 (stereo not given) | 12.2% |  |  |
| O=C(Cc1ccccc1)N1CCN(C(=O)Nc2cc(C(F)(F)F)ccc2Cl)C(c2ccccc2)C1 (stereo not given) | 100% | 64.5 µM |  |
| CC1CN(C(=O)CC2CCCCC2)CCN1C(=S)Nc1ccc(C#N)cc1 (stereo not given) | 100% | 193 µM | IC50 (Human adenovirus 5 [5]): 2.5 µM; Activity (Human adenovirus 5 [7]): Active; selectivity ratio [2]: 77.2; fold change (FC) (Human adenovirus 5 [4]): 9.3 |
| O=C(Cc1ccccc1)N1CCN(C(=S)Nc2ccc([N+](=O)[O-])cc2)C(c2ccccc2)C1 (stereo not given) | 5.5% |  |  |
| Nc1ccn(C[C@@H](CO)OCP(=O)(O)O)c(=O)n1.O.O [CIDOFOVIR] | 3.51% | 50.6 µM | IC50 (Human adenovirus 5 [5]): 24.1 µM; fold change (FC) (Human adenovirus 5 [4]): 82.5 |
| O=C(c1cc2ccccc2o1)N1CCN(C(=O)Nc2ccc([N+](=O)[O-])cc2)C(c2ccccc2)C1 (stereo not given) | 100% |  | selectivity ratio [2]: 93.5 |
| CC(C)(C)CC(=O)N1CCN(C(=O)Nc2ccc([N+](=O)[O-])cc2)C(c2ccccc2)C1 (stereo not given) | 74.4% | 72 µM |  |
| N#Cc1ccc(NC(=O)N2CCN(C(=O)c3cc4ccccc4o3)CC2c2ccccc2)cc1 (stereo not given) |  |  | selectivity ratio [2]: 53.3; fold change (FC) (Human adenovirus 5 [4]): 34.5 |

| Compound | inhibition at 10 µM (Human adenovirus 5 [1]) | CC50 at 48 h [3] | also measured |
| --- | --- | --- | --- |
| CC1CN(C(=O)CC(C)(C)C)CCN1C(=S)Nc1ccc(F)cc1 (stereo not given) | 7.5% |  |  |
| COc1ccc(NC(=S)N2CCN(C(=O)OC(C)(C)C)CC2C)cc1 (stereo not given) | 36.5% |  |  |
| CC1CN(C(=O)OC(C)(C)C)CCN1C(=S)Nc1ccc(C#N)cc1 (stereo not given) | 88.9% | 175 µM |  |
| CC1CN(C(=O)OC(C)(C)C)CCN1C(=S)Nc1cc(C(F)(F)F)cc(C(F)(F)F)c1 (stereo not given) | 11.1% |  |  |
| O=C(CC1CCCCC1)N1CCN(C(=O)Nc2ccc([N+](=O)[O-])cc2)C(c2ccccc2)C1 (stereo not given) | 98.9% | 71.8 µM |  |
| Cc1ccc(NC(=S)N2CCN(C(=O)CC(C)(C)C)CC2C)cc1 (stereo not given) | 76.8% |  |  |
| O=C(Nc1ccc([N+](=O)[O-])cc1)N1CCN(C(=O)c2cc3ccccc3o2)CC1 | 0% |  |  |
| CC1CN(C(=O)Cc2ccccc2)CCN1C(=S)Nc1ccc(C(F)(F)F)cc1 (stereo not given) | 73.4% |  |  |
| O=C(CC1CCCCC1)N1CCN(C(=O)Nc2ccccc2[N+](=O)[O-])C(c2ccccc2)C1 (stereo not given) | 100% | 112 µM | IC50 (Human adenovirus 5 [5]): 1.4 µM; Activity (Human adenovirus 5 [7]): Active; selectivity ratio [2]: 80.1; fold change (FC) (Human adenovirus 5 [4]): 15.2; Activity (Human betaherpesvirus 5): Active |
| CC(C)(C)OC(=O)N1CCN(C(=S)Nc2ccc(F)cc2)C(c2ccccc2)C1 (stereo not given) | 27.5% |  |  |
| CC1CN(C(=O)c2cc3ccccc3o2)CCN1C(=S)Nc1ccc([N+](=O)[O-])cc1 (stereo not given) | 100% | 20 µM |  |
| CC1CN(C(=O)Cc2ccccc2)CCN1C(=S)Nc1ccc(C#N)cc1 (stereo not given) | 98.4% | 175 µM | IC50 (Human adenovirus 5 [5]): 4.6 µM; Activity (Human adenovirus 5 [6]): inactive; Activity (Human adenovirus 5 [7]): Active; selectivity ratio [2]: 38; fold change (FC) (Human adenovirus 5 [4]): 18.4; Activity (Human betaherpesvirus 5): Active |
| CC1CN(C(=O)OC(C)(C)C)CCN1C(=S)Nc1ccc([N+](=O)[O-])cc1 (stereo not given) | 100% |  |  |
| CC1CN(C(=O)CC(C)(C)C)CCN1C(=S)Nc1ccc([N+](=O)[O-])cc1 (stereo not given) | 76.2% |  |  |
| CC1CN(C(=O)c2cc3ccccc3o2)CC(C)N1C(=O)Nc1ccc(Cl)c(C(F)(F)F)c1 (stereo not given) | 0% |  |  |
| CC1CN(C(=O)c2cc3ccccc3o2)CCN1C(=S)Nc1ccc(F)cc1 (stereo not given) | 85% | 75.4 µM |  |
| COc1ccc(NC(=S)N2CCN(C(=O)CC3CCCCC3)CC2C)cc1 (stereo not given) | 25.5% |  |  |
| CC(C)(C)OC(=O)N1CCN(C(=O)Nc2ccc([N+](=O)[O-])cc2)C(c2ccccc2)C1 (stereo not given) |  |  | selectivity ratio [2]: 47.3 |
| O=C(c1cc2ccccc2o1)N1CCN(C(=O)c2cc3ccccc3o2)CC1 | 51.5% |  |  |
| CC1CN(C(=O)CC(C)(C)C)CCN1C(=S)Nc1ccc(C#N)cc1 (stereo not given) | 51% |  |  |
| Cc1ccc(NC(=S)N2CCN(C(=O)OC(C)(C)C)CC2C)cc1 (stereo not given) | 49.1% |  |  |
| CC1CN(C(=O)CC(C)(C)C)CCN1C(=S)Nc1ccc(Cl)cc1 (stereo not given) | 61.6% |  |  |
| CC(C)(C)OC(=O)N1CCN(C(=O)Nc2cc(C(F)(F)F)ccc2Cl)CC1 | 95% | 200 µM | IC50 (Human adenovirus 5 [5]): 2.3 µM; Activity (Human adenovirus 5 [7]): Active; selectivity ratio [2]: 87; fold change (FC) (Human adenovirus 5 [4]): 18.7; Activity (Human betaherpesvirus 5): Active |

| Compound | inhibition at 10 µM (Human adenovirus 5 [1]) | CC50 at 48 h [3] | also measured |
| --- | --- | --- | --- |
| CC1CN(C(=O)c2cc3ccccc3o2)CC(C)N1C(=O)Nc1ccc(Cl)cc1 (stereo not given) | 81.1% | 113 µM |  |
| CC1CN(C(=O)c2cc3ccccc3o2)CCN1C(=S)Nc1ccc(C(F)(F)F)cc1 (stereo not given) | 100% | 46.3 µM |  |
| CC1CN(C(=O)Cc2ccccc2)CCN1C(=S)Nc1ccc(F)cc1 (stereo not given) | 100% | 26.3 µM |  |
| Cc1ccc(NC(=O)N2C(C)CN(C(=O)c3cc4ccccc4o3)CC2C)cc1 (stereo not given) | 0% |  |  |
| O=C(c1cc2ccccc2o1)N1CCN(C(=O)c2cc3ccccc3o2)C(c2ccccc2)C1 (stereo not given) | 19.4% |  |  |
| O=C(c1cc2ccccc2o1)N1CCN(C(=O)Nc2ccc(Cl)cc2)C(c2ccccc2)C1 (stereo not given) |  |  | selectivity ratio [2]: 42.7; fold change (FC) (Human adenovirus 5 [4]): 16.9 |
| CC1CN(C(=O)c2cc3ccccc3o2)CC(C)N1C(=O)Nc1ccc(C#N)cc1 (stereo not given) | 10% |  |  |
| CC1CN(C(=O)c2cc3ccccc3o2)CC(C)N1C(=O)Nc1cc(C(F)(F)F)ccc1Cl (stereo not given) | 0% |  |  |
| Cc1ccc(NC(=S)N2CCN(C(=O)CC3CCCCC3)CC2c2ccccc2)cc1 (stereo not given) | 15% |  |  |
| Cc1ccc(NC(=S)N2CCN(C(=O)Cc3ccccc3)CC2C)cc1 (stereo not given) | 92.9% | 200 µM |  |
| CC(C)(C)CC(=O)N1CCN(C(=O)Nc2ccccc2[N+](=O)[O-])C(c2ccccc2)C1 (stereo not given) | 100% | 63.3 µM |  |
| O=C(Cc1ccccc1)N1CCN(C(=O)Nc2ccccc2[N+](=O)[O-])C(c2ccccc2)C1 (stereo not given) | 96.9% | 120 µM | IC50 (Human adenovirus 5 [5]): 2.1 µM; Activity (Human adenovirus 5 [7]): Active; selectivity ratio [2]: 57.4; fold change (FC) (Human adenovirus 5 [4]): 32.9; Activity (Human betaherpesvirus 5): Active |
| CC1CN(C(=O)CC(C)(C)C)CCN1C(=S)Nc1cc(C(F)(F)F)cc(C(F)(F)F)c1 (stereo not given) | 4.81% |  |  |
| CC1CN(C(=O)CC2CCCCC2)CCN1C(=S)Nc1ccc(C(F)(F)F)cc1 (stereo not given) | 88.9% | 142 µM |  |
| CC1CN(C(=O)CC2CCCCC2)CCN1C(=S)Nc1ccc(Cl)cc1 (stereo not given) | 89.3% | 200 µM |  |
| O=C(Nc1cc(C(F)(F)F)ccc1Cl)N1CCN(C(=O)Nc2cc(C(F)(F)F)ccc2Cl)C(c2ccccc2)C1 (stereo not given) | 90.4% | 200 µM |  |
| CC1CN(C(=O)c2cc3ccccc3o2)CCN1C(=S)Nc1ccc(C#N)cc1 (stereo not given) | 100% | 25.5 µM |  |
| CC1CN(C(=O)c2cc3ccccc3o2)CC(C)N1C(=O)Nc1ccccc1[N+](=O)[O-] (stereo not given) | 72.2% |  |  |
| O=C(Nc1cc(C(F)(F)F)ccc1Cl)N1CCN(C(=O)Nc2cc(C(F)(F)F)ccc2Cl)CC1 | 33.9% |  |  |
| COc1ccc(NC(=S)N2CCN(C(=O)Cc3ccccc3)CC2C)cc1 (stereo not given) | 88.9% | 175 µM |  |
| CC1CN(C(=O)OC(C)(C)C)CCN1C(=S)Nc1ccc(C(F)(F)F)cc1 (stereo not given) | 73.4% |  |  |
| CC1CN(C(=O)Cc2ccccc2)CCN1C(=S)Nc1ccc(Cl)cc1 (stereo not given) | 84.6% | 175 µM |  |
